Data as given in ChEMBL document CHEMBL1201862, “PubChem BioAssay data set” (2004).
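Tested at 5 concentrations; 48 h exposure; 96-well plates; endpoints linearly interpolated, else capped at highest concentration. At the GI50, growth is halved.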 Active and inactive are the calls of the source. No stated cut-off is given here; in the data, active = GI50 up to about 1.1 µM and inactive = higher. Non-standard residues stand in square brackets, D forms with d. Residues, ends and D or L forms follow the SMILES beside them. ξ: configuration not given here. *: point of attachment. Cbz = O=C(OCc1ccccc1)*; ξK = NCCCCC(N)C(=O)O

Experiments:
Experiment in all cases: NCI anticancer screen, dose series, 48 h
OVCAR-5 = system: OVCAR-5
Malme-3M = system: Malme-3M
OVCAR-4 = system: OVCAR-4
NCI-H226 = system: NCI-H226
U-251 = system: U-251
UACC-62 = system: UACC-62
OVCAR-3 = system: OVCAR-3
SF-268 = system: SF-268
MDA-MB-435 = system: MDA-MB-435
T47D = system: T47D
UACC-257 = system: UACC-257
NCI/ADR-RES = system: NCI/ADR-RES
NCI-H460 = system: NCI-H460
MDA-MB-231 = system: MDA-MB-231
CCRF-CEM = system: CCRF-CEM
RPMI-8226 = system: RPMI-8226
SK-MEL-5 = system: SK-MEL-5
SNB-75 = system: SNB-75
MOLT-4 = system: MOLT-4
BT-549 = system: BT-549

Measured: GI50

CC(C)(C)OC(=O)n1cc(C2CNC(=O)C23CCC(=O)N3Cc2ccccc2)c2ccccc21 (centres undefined)
inactive: OVCAR-5 19.5 µM | Malme-3M 21.9 µM | OVCAR-4 18.7 µM | NCI-H226 19.9 µM | U-251 18.7 µM | UACC-62 17.5 µM | OVCAR-3 19.2 µM | SF-268 31.6 µM | MDA-MB-435 20 µM | T47D 26 µM | UACC-257 27 µM | NCI/ADR-RES 32.4 µM | NCI-H460 20.7 µM | MDA-MB-231 16.8 µM | CCRF-CEM 25.9 µM | RPMI-8226 18.7 µM | SK-MEL-5 16.9 µM | SNB-75 18.1 µM | MOLT-4 36.9 µM

COC(=O)NNC(=O)OC.COC(=O)Nc1ccccc1NC(=O)OC.COC(=O)Oc1nn(C(=O)OC)c(=O)c2ccccc12
inactive: OVCAR-5 > 100 µM | Malme-3M > 100 µM | OVCAR-4 > 100 µM | NCI-H226 > 100 µM | U-251 > 100 µM | UACC-62 > 100 µM | OVCAR-3 > 100 µM | SF-268 > 100 µM | MDA-MB-435 > 100 µM | T47D > 100 µM | UACC-257 > 100 µM | NCI/ADR-RES > 100 µM | NCI-H460 > 100 µM | MDA-MB-231 > 100 µM | CCRF-CEM > 100 µM | RPMI-8226 > 100 µM | SK-MEL-5 > 100 µM | SNB-75 > 100 µM | MOLT-4 > 100 µM

O=C1NCC2(CCN(CCCC3(c4ccc(F)cc4)OCCO3)CC2)N1c1ccccc1
inactive: OVCAR-5 > 100 µM | Malme-3M > 100 µM | OVCAR-4 > 100 µM | NCI-H226 > 100 µM | U-251 > 100 µM | UACC-62 > 100 µM | OVCAR-3 > 100 µM | SF-268 > 100 µM | MDA-MB-435 > 100 µM | T47D > 100 µM | UACC-257 70.6 µM | NCI/ADR-RES > 100 µM | NCI-H460 > 100 µM | MDA-MB-231 > 100 µM | CCRF-CEM > 100 µM | RPMI-8226 > 100 µM | SK-MEL-5 > 100 µM | SNB-75 66.5 µM | MOLT-4 > 100 µM

Clc1ccc(C(n2cc(Br)cn2)n2cc(Br)cn2)cc1
inactive: OVCAR-5 16 µM | Malme-3M 15.8 µM | OVCAR-4 12 µM | NCI-H226 8.91 µM | U-251 16.3 µM | UACC-62 13.4 µM | OVCAR-3 14.1 µM | SF-268 16.4 µM | UACC-257 14.7 µM | NCI-H460 16.1 µM | CCRF-CEM 21.3 µM | RPMI-8226 19.9 µM | SK-MEL-5 14 µM | SNB-75 > 10 µM | MOLT-4 16.5 µM

Oc1ccc2c(c1)c1c(n2CCN2CCOCC2)-c2ccccc2CC1
inactive: OVCAR-5 24.4 µM | Malme-3M 19.6 µM | NCI-H226 30.7 µM | U-251 25.6 µM | UACC-62 20.7 µM | OVCAR-3 22 µM | SF-268 30 µM | MDA-MB-435 > 10 µM | BT-549 33.6 µM | UACC-257 32.9 µM | NCI/ADR-RES 23.1 µM | NCI-H460 5.83 µM | MDA-MB-231 29.9 µM | CCRF-CEM 32.3 µM | RPMI-8226 29.8 µM | SNB-75 28 µM | MOLT-4 23.9 µM

Cc1cc(Cl)ccc1NC(=O)C1C(=O)N(c2ccc(Cl)cc2C)C(=O)/C1=N\N (centres undefined)
inactive: OVCAR-5 60.5 µM | Malme-3M 71.8 µM | OVCAR-4 83.2 µM | NCI-H226 27 µM | U-251 33 µM | UACC-62 35.8 µM | OVCAR-3 30.8 µM | SF-268 26.5 µM | UACC-257 > 100 µM | NCI-H460 51.6 µM | CCRF-CEM 28.6 µM | RPMI-8226 25.4 µM | SK-MEL-5 30.5 µM | SNB-75 42.6 µM | MOLT-4 27.9 µM

Nc1cc2c3c(cccc3c1)NC2=O
inactive: OVCAR-5 > 100 µM | Malme-3M > 100 µM | OVCAR-4 > 100 µM | NCI-H226 > 100 µM | U-251 31.8 µM | UACC-62 63 µM | OVCAR-3 > 100 µM | SF-268 11.2 µM | MDA-MB-435 > 100 µM | T47D 28 µM | UACC-257 > 100 µM | NCI/ADR-RES > 100 µM | NCI-H460 8.39 µM | MDA-MB-231 70.3 µM | CCRF-CEM 8.05 µM | RPMI-8226 > 100 µM | SK-MEL-5 92.3 µM | SNB-75 14.6 µM | MOLT-4 24 µM

Cc1c(NC(=O)c2cc([N+](=O)[O-])cc([N+](=O)[O-])c2)c(=O)n(-c2ccccc2)n1C
inactive: Malme-3M 27.3 µM | OVCAR-4 43.9 µM | NCI-H226 > 100 µM | U-251 > 100 µM | UACC-62 > 100 µM | OVCAR-3 29.9 µM | SF-268 > 100 µM | MDA-MB-435 > 100 µM | BT-549 > 100 µM | UACC-257 32.8 µM | NCI/ADR-RES > 100 µM | NCI-H460 97.7 µM | MDA-MB-231 > 100 µM | CCRF-CEM > 100 µM | RPMI-8226 > 100 µM | SK-MEL-5 > 100 µM | MOLT-4 > 100 µM

Cc1ccc(C(=O)/C=C(\O)C(=O)NC23CC4CC(CC(C4)C2)C3)cc1
inactive: Malme-3M > 10 µM | OVCAR-4 > 10 µM | UACC-62 9.02 µM | SF-268 > 10 µM | MDA-MB-435 > 10 µM | T47D > 10 µM | UACC-257 > 10 µM | MDA-MB-231 8.71 µM | CCRF-CEM 5.92 µM | RPMI-8226 8.61 µM | SK-MEL-5 > 10 µM | SNB-75 > 10 µM | MOLT-4 3.86 µM

CCCC1C(CC)C(NC)C(C#N)(C#N)C1(C#N)C#N (centres undefined)
inactive: OVCAR-5 33.7 µM | Malme-3M 21.2 µM | OVCAR-4 28.2 µM | NCI-H226 2.88 µM | U-251 28.1 µM | UACC-62 17.5 µM | SF-268 16.5 µM | MDA-MB-435 25.3 µM | T47D 14.5 µM | UACC-257 16.7 µM | NCI/ADR-RES 17.9 µM | MDA-MB-231 15.2 µM | CCRF-CEM 13.1 µM | RPMI-8226 17.1 µM | SK-MEL-5 12.1 µM | SNB-75 10 µM | MOLT-4 24.1 µM

N#CCCC(CC#N)N1CCN(CCO)CC1 (centres undefined)
inactive: OVCAR-5 > 100 µM | Malme-3M > 100 µM | OVCAR-4 > 100 µM | NCI-H226 > 100 µM | U-251 > 100 µM | UACC-62 > 100 µM | SF-268 > 100 µM | MDA-MB-435 > 100 µM | T47D > 100 µM | UACC-257 > 100 µM | NCI/ADR-RES > 100 µM | NCI-H460 > 100 µM | MDA-MB-231 > 100 µM | CCRF-CEM > 100 µM | RPMI-8226 > 100 µM | SK-MEL-5 > 100 µM | SNB-75 > 100 µM | MOLT-4 > 100 µM

O=C(O)CCC(NC(=O)c1ccc(CNc2nc3cc(C(F)(F)F)ccc3nc2C(=O)O)cc1)C(=O)O (centres undefined)
inactive: OVCAR-5 > 100 µM | Malme-3M > 100 µM | OVCAR-4 > 100 µM | NCI-H226 > 100 µM | U-251 > 100 µM | UACC-62 > 100 µM | OVCAR-3 > 100 µM | SF-268 > 100 µM | MDA-MB-435 > 100 µM | T47D > 100 µM | UACC-257 > 100 µM | NCI/ADR-RES > 100 µM | NCI-H460 > 100 µM | CCRF-CEM > 100 µM | SNB-75 > 100 µM | MOLT-4 > 100 µM

COC12c3ccccc3-c3ccccc3C1[C@@H](C(=O)O)[C@H]2C(=O)O (some centres undefined)
inactive: OVCAR-5 > 10 µM | Malme-3M > 10 µM | OVCAR-4 > 10 µM | NCI-H226 > 10 µM | U-251 > 10 µM | OVCAR-3 > 10 µM | SF-268 > 10 µM | MDA-MB-435 > 10 µM | T47D > 10 µM | UACC-257 > 10 µM | NCI/ADR-RES > 10 µM | NCI-H460 > 10 µM | MDA-MB-231 > 10 µM | CCRF-CEM > 10 µM | RPMI-8226 > 10 µM | SK-MEL-5 > 10 µM | SNB-75 > 10 µM | MOLT-4 > 10 µM

C=C1C(O)C[C@H](OC(C)=O)[C@]2(C)C1C(OC(C)=O)[C@]1(C(C)(C)O)CC(O)C(C)=C1[C@@H](OC(=O)c1ccccc1)C2OC(C)=O (some centres undefined)
inactive: OVCAR-5 > 10 µM | OVCAR-4 > 10 µM | NCI-H226 > 10 µM | U-251 > 10 µM | UACC-62 > 10 µM | OVCAR-3 > 10 µM | SF-268 > 10 µM | MDA-MB-435 > 10 µM | T47D > 10 µM | UACC-257 > 10 µM | NCI/ADR-RES > 10 µM | NCI-H460 > 10 µM | MDA-MB-231 > 10 µM | CCRF-CEM > 10 µM | RPMI-8226 > 10 µM | SK-MEL-5 > 10 µM | SNB-75 > 10 µM | MOLT-4 > 10 µM

NCCCCC(NC(=O)OCc1ccccc1)C(=O)NCC(N)=O (centres undefined) (Cbz-[ξK]-Gly-NH2)
inactive: OVCAR-5 > 100 µM | Malme-3M > 100 µM | OVCAR-4 > 100 µM | NCI-H226 > 100 µM | U-251 > 100 µM | UACC-62 > 100 µM | OVCAR-3 > 100 µM | SF-268 > 100 µM | MDA-MB-435 > 100 µM | T47D > 100 µM | UACC-257 > 100 µM | NCI/ADR-RES > 100 µM | NCI-H460 > 100 µM | MDA-MB-231 > 100 µM | CCRF-CEM > 100 µM | RPMI-8226 > 100 µM | SK-MEL-5 > 100 µM | SNB-75 > 100 µM | MOLT-4 > 100 µM
